Experimental data: paper PMC10263210, “Design, Synthesis and Biological Evaluation of Novel MDH Inhibitors Targeting Tumor Microenvironment” (Pharmaceuticals, 2023)

Experiments:
Format in all cases: cell-based, human
[1] = tested on: A549 cells; assay: Intracellular ATP content (ATPlite); conditions: 6 h
Procedure: (§1) Malate transported to the interior of the mitochondria is oxidized to OAA by mitochondrial MDH2, thereby generating NADH, which then enters the ETC to produce ATP. Because inhibition of MAS is expected to reduce ATP production in cancer cells, the total amount of ATP was measured after treatment with compound 50.
A549 cells (1 × 10^4 cells/96-well plate) were incubated for 6 h with or without drugs. After removing the supernatant, an ATP assay was performed using ATPlite (PerkinElmer, Waltham, MA, USA) according to the manufacturer’s instructions. ATP content was measured using a luminometer (Synergy HTX multimode reader, Winoski, VT, USA).

[2] = tested on: A549 cells; assay: ADP/ATP ratio assay
Procedure: as §1
The ADP/ATP ratio assay kit (Sigma-Aldrich, USA) was used for ADP/ATP determination according to the manufacturer’s instructions. Samples for analysis were prepared using the ADP/ATP ratio assay kit. A549 cells were cultured directly in an assay microplate. The culture medium was removed, and then 90 µL of ATP reagent was added to each well and incubated for 1 min at room temperature. Luminescence was measured on a luminometer for ATP (RLUA), and the plate was incubated for an additional 10 min. Next, the luminescence was read on a luminometer for ATP (RLUB). Five microliters of ADP reagent were added to each well. After 1 min, the luminescence was read (RLUC).

[3] = tested on: A549 cells; assay: Real-time ATP production rate (XF analyzer)
Source text: We then examined whether the ATP production pattern was altered by drug treatment using an XF analyzer for real-time metabolic analysis (Figure 5).

With `CC(C)(C)CC(C)(C)c1ccc(N2CCC(C(=O)Nc3cccc(OC(F)(F)F)c3)CC2)cc1` [Compound 50, N-(3-(Trifluoromethoxy)phenyl)-1-(4-(2,4,4-trimethylpentan-2-yl)phenyl)piperidine-4-carboxamide] the ATP level [1] was “reduced ATP level”, the ADP/ATP [2] was “increase in ADP/ATP” and the “total ATP decrease” value ([3]; 5 µM) was 14.6%. For the same molecule, the “total ATP decrease” value ([3]; 10 µM) was 28.6%.
